In ChEMBL document CHEMBL1201862, “PubChem BioAssay data set” (2004):
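Each compound was tested at five concentrations against cells in 96-well plates for 48 hours. GI50 is the concentration that inhibits growth by half.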 Activity calls are given as the source filed them. No stated cut-off is given here; in the data, active = GI50 up to about 1.1 µM and inactive = higher.

Columns and labels:
Assay in all cases: DTP human tumour cell line panel, 48 h
[1] = tested on: SNB-19
[2] = tested on: HCT-116
[3] = tested on: OVCAR-5
[4] = tested on: CCRF-CEM
[5] = tested on: SNB-75
[6] = tested on: NCI-H226
[7] = tested on: A498
[8] = tested on: HCC 2998
[9] = tested on: CAKI-1
[10] = tested on: COLO 205
[11] = tested on: UACC-62
[12] = tested on: HT-29
[13] = tested on: SF-295
[14] = tested on: A549
[15] = tested on: SR

CCOC(=O)C1N(S(=O)(=O)c2ccc(C)cc2)CCC12C(c1ccc(OC)c(OC)c1)=Nc1ccccc12 (configuration not stated)
GI50 [1]: > 100 µM (inactive) | GI50 [2]: > 100 µM (inactive) | GI50 [3]: > 100 µM (inactive) | GI50 [4]: > 100 µM (inactive) | GI50 [5]: 35.5 µM (inactive) | GI50 [6]: > 100 µM (inactive) | GI50 [7]: > 100 µM (inactive) | GI50 [8]: > 100 µM (inactive) | GI50 [9]: > 100 µM (inactive) | GI50 [10]: > 100 µM (inactive) | GI50 [11]: > 100 µM (inactive) | GI50 [12]: > 100 µM (inactive) | GI50 [13]: > 100 µM (inactive) | GI50 [14]: > 100 µM (inactive)

N#Cc1c2nc3ccccc3nc2n2ccc3ccccc3c12
GI50 [1]: > 100 µM (inactive) | GI50 [2]: 54 µM (inactive) | GI50 [3]: > 100 µM (inactive) | GI50 [4]: > 100 µM (inactive) | GI50 [5]: > 100 µM (inactive) | GI50 [6]: > 100 µM (inactive) | GI50 [8]: > 100 µM (inactive) | GI50 [10]: > 100 µM (inactive) | GI50 [12]: > 100 µM (inactive) | GI50 [13]: > 100 µM (inactive) | GI50 [14]: > 100 µM (inactive)

CC1(c2cccc3c2C2(O)C=CC4(CCC32)OCCO4)OCCO1 (configuration not stated)
GI50 [1]: > 100 µM (inactive) | GI50 [2]: > 100 µM (inactive) | GI50 [3]: > 100 µM (inactive) | GI50 [4]: > 100 µM (inactive) | GI50 [5]: > 100 µM (inactive) | GI50 [6]: > 100 µM (inactive) | GI50 [7]: > 100 µM (inactive) | GI50 [8]: > 100 µM (inactive) | GI50 [9]: > 100 µM (inactive) | GI50 [10]: > 100 µM (inactive) | GI50 [11]: > 100 µM (inactive) | GI50 [12]: > 100 µM (inactive) | GI50 [13]: > 100 µM (inactive) | GI50 [14]: > 100 µM (inactive)

COc1cc2ccc(CC#N)cc2cc1OC
GI50 [1]: > 100 µM (inactive) | GI50 [15]: > 100 µM (inactive) | GI50 [3]: > 100 µM (inactive) | GI50 [4]: > 100 µM (inactive) | GI50 [6]: > 100 µM (inactive) | GI50 [7]: > 100 µM (inactive) | GI50 [9]: 45.9 µM (inactive) | GI50 [12]: > 100 µM (inactive) | GI50 [13]: > 100 µM (inactive) | GI50 [14]: > 100 µM (inactive)

CCN(CC)CCN(C)CC(C)(C)C(=O)/C=C/c1ccccc1
GI50 [1]: 15.1 µM (inactive) | GI50 [15]: 10.5 µM (inactive) | GI50 [3]: 14 µM (inactive) | GI50 [4]: 4.99 µM (inactive) | GI50 [5]: 4.36 µM (inactive) | GI50 [6]: 17.1 µM (inactive) | GI50 [7]: 4.11 µM (inactive) | GI50 [8]: 14.5 µM (inactive) | GI50 [9]: 11.8 µM (inactive) | GI50 [10]: 13.7 µM (inactive) | GI50 [11]: 12.7 µM (inactive) | GI50 [12]: 11.2 µM (inactive) | GI50 [13]: 15 µM (inactive) | GI50 [14]: 16.4 µM (inactive)

CC(=O)N/C(=C\c1cccc([N+](=O)[O-])c1)c1nc2ccc3c(c2[nH]1)C(=O)c1ccccc1C3=O
GI50 [1]: > 100 µM (inactive) | GI50 [15]: 6.97 µM (inactive) | GI50 [2]: 17.9 µM (inactive) | GI50 [3]: > 93.3 µM (inactive) | GI50 [4]: 0.885 µM (active) | GI50 [5]: 21.3 µM (inactive) | GI50 [6]: > 100 µM (inactive) | GI50 [7]: 22.8 µM (inactive) | GI50 [8]: > 100 µM (inactive) | GI50 [9]: 11.7 µM (inactive) | GI50 [10]: > 78.2 µM (inactive) | GI50 [11]: > 49.8 µM (inactive) | GI50 [12]: > 100 µM (inactive) | GI50 [13]: > 100 µM (inactive) | GI50 [14]: 26.6 µM (inactive)

COc1ccc(C2Oc3cc(OC)c(OC)cc3C2CCl)cc1OC (configuration not stated)
GI50 [1]: > 100 µM (inactive) | GI50 [15]: > 100 µM (inactive) | GI50 [2]: > 100 µM (inactive) | GI50 [3]: > 100 µM (inactive) | GI50 [4]: > 100 µM (inactive) | GI50 [5]: 44.8 µM (inactive) | GI50 [6]: > 100 µM (inactive) | GI50 [7]: 73.5 µM (inactive) | GI50 [8]: > 100 µM (inactive) | GI50 [9]: > 100 µM (inactive) | GI50 [10]: > 100 µM (inactive) | GI50 [11]: 25.6 µM (inactive) | GI50 [14]: > 100 µM (inactive)

CCOC(=O)C(=O)C(C#N)c1ccc(Cl)cc1 (configuration not stated)
GI50 [1]: > 100 µM (inactive) | GI50 [2]: > 100 µM (inactive) | GI50 [3]: > 100 µM (inactive) | GI50 [5]: > 100 µM (inactive) | GI50 [6]: 62.4 µM (inactive) | GI50 [7]: > 100 µM (inactive) | GI50 [9]: > 100 µM (inactive) | GI50 [10]: > 100 µM (inactive) | GI50 [11]: > 100 µM (inactive) | GI50 [12]: > 100 µM (inactive) | GI50 [13]: > 100 µM (inactive) | GI50 [14]: > 100 µM (inactive)

COc1ccc2c(c1)CC1c3c(ccc(OC)c3O)CC2N1C (configuration not stated)
GI50 [1]: 47.6 µM (inactive) | GI50 [15]: 15.3 µM (inactive) | GI50 [2]: 19.6 µM (inactive) | GI50 [3]: 54.5 µM (inactive) | GI50 [4]: 23.3 µM (inactive) | GI50 [5]: 38.3 µM (inactive) | GI50 [6]: 86.1 µM (inactive) | GI50 [7]: > 100 µM (inactive) | GI50 [8]: 16.8 µM (inactive) | GI50 [9]: 40 µM (inactive) | GI50 [10]: 18.2 µM (inactive) | GI50 [11]: 47.4 µM (inactive) | GI50 [12]: 22.9 µM (inactive) | GI50 [13]: 22.8 µM (inactive) | GI50 [14]: 57.3 µM (inactive)

N#Cc1cccc(/C=N/N/C(N)=N/O)c1
GI50 [1]: > 100 µM (inactive) | GI50 [15]: 48.1 µM (inactive) | GI50 [2]: > 100 µM (inactive) | GI50 [3]: > 100 µM (inactive) | GI50 [4]: 57.7 µM (inactive) | GI50 [5]: 14.8 µM (inactive) | GI50 [6]: 56.1 µM (inactive) | GI50 [7]: 33.3 µM (inactive) | GI50 [9]: 17.1 µM (inactive) | GI50 [10]: > 100 µM (inactive) | GI50 [11]: 13 µM (inactive) | GI50 [12]: 45.5 µM (inactive) | GI50 [13]: > 100 µM (inactive) | GI50 [14]: 24.9 µM (inactive)
